Test results published in ChEMBL document CHEMBL3885861, “Open TG-GATES”.

Species: Rattus norvegicus
Experiment: Open TG-GATES - Regimen: Single
Assay type: toxicity, organism-based, Sprague-Dawley
Parameters: regimen Single, gender Male, age 6 weeks
Conditions: in vivo, po, 0 mg/kg, route gavage, dose level Control; for APTT / Bas / Eos / Fbg / Hb / Ht / Lym / MCH / MCHC / MCV / Mono / Neu / PT / Plat / RBC / Ret / WBC: tissue Blood; for KIDNEY_L / KIDNEY_R / KIDNEY_TOTAL: tissue Kidney; for LIVER: tissue Liver; for A/G / ALP / ALT / AST / BUN / CRE / Ca / Cl / DBIL / GLC / IP / K / LDH / Na / PL / RALB / TBIL / TC / TG / TP / gamma-GTP: tissue Plasma

O=C(N[C@H](CO)[C@H](O)c1ccc([N+](=O)[O-])cc1)C(Cl)Cl [CHLORAMPHENICOL]
TERMINAL_BW (3 h): 223.3 g | APTT (3 h): 17.4 s | Bas (3 h): 0% | Eos (3 h): 1% | Fbg (3 h): 266.4 mg/dL | Hb (3 h): 13.2 g/dL | Ht (3 h): 38.7% | Lym (3 h): 79.8% | MCH (3 h): 21.8 pg | MCHC (3 h): 34.2% | MCV (3 h): 63.8 fL | Mono (3 h): 3.8% | Neu (3 h): 15.2% | PT (3 h): 14.3 s | Plat (3 h): 115.3 x10_4/uL | RBC (3 h): 607 x10_4/ul | Ret (3 h): 8.3% | WBC (3 h): 80.9 x10_2/uL | KIDNEY_L (3 h): 0.9 g | KIDNEY_R (3 h): 0.9 g | KIDNEY_TOTAL (3 h): 1.8 g | LIVER (3 h): 10.1 g | A/G (3 h): 0.9 | ALP (3 h): 1566 IU/L | ALT (3 h): 41.4 IU/L | AST (3 h): 73.8 IU/L | BUN (3 h): 9.4 mg/dL | CRE (3 h): 0.2 mg/dL | Ca (3 h): 11.6 mg/dL | Cl (3 h): 105 meq/L | DBIL (3 h): 0.012 mg/dL | GLC (3 h): 184.2 mg/dL | IP (3 h): 8.6 mg/dL | K (3 h): 4.2 meq/L | LDH (3 h): 57.6 IU/L | Na (3 h): 139.8 meq/L | PL (3 h): 136.2 mg/dL | RALB (3 h): 2.5 g/dL | TBIL (3 h): 0.062 mg/dL | TC (3 h): 74.6 mg/dL | TG (3 h): 66.4 mg/dL | TP (3 h): 5.3 g/dL | gamma-GTP (3 h): 1.2 IU/L | TERMINAL_BW (6 h): 222.3 g | APTT (6 h): 17.1 s | Bas (6 h): 0% | Eos (6 h): 0.8% | Fbg (6 h): 262.8 mg/dL | Hb (6 h): 13.3 g/dL | Ht (6 h): 42.9% | Lym (6 h): 72.2% | MCH (6 h): 21.6 pg | MCHC (6 h): 30.9% | MCV (6 h): 70.1 fL | Mono (6 h): 2.6% | Neu (6 h): 24.2% | PT (6 h): 14.6 s | Plat (6 h): 109 x10_4/uL | RBC (6 h): 613.2 x10_4/ul | Ret (6 h): 8.2% | WBC (6 h): 60.2 x10_2/uL | KIDNEY_L (6 h): 0.9 g | KIDNEY_R (6 h): 0.9 g | KIDNEY_TOTAL (6 h): 1.8 g | LIVER (6 h): 9.4 g | A/G (6 h): 0.9 | ALP (6 h): 1343.8 IU/L | ALT (6 h): 38.8 IU/L | AST (6 h): 71.2 IU/L | BUN (6 h): 8.8 mg/dL | CRE (6 h): 0.2 mg/dL | Ca (6 h): 11.6 mg/dL | Cl (6 h): 105.2 meq/L | DBIL (6 h): 0.014 mg/dL | GLC (6 h): 187.6 mg/dL | IP (6 h): 10.4 mg/dL | K (6 h): 4.2 meq/L | LDH (6 h): 62.8 IU/L | Na (6 h): 141.8 meq/L | PL (6 h): 136.2 mg/dL | RALB (6 h): 2.5 g/dL | TBIL (6 h): 0.064 mg/dL | TC (6 h): 73.6 mg/dL | TG (6 h): 72.2 mg/dL | TP (6 h): 5.5 g/dL | gamma-GTP (6 h): 1.4 IU/L | TERMINAL_BW (9 h): 222.7 g | APTT (9 h): 16.3 s | Bas (9 h): 0% | Eos (9 h): 1% | Fbg (9 h): 256.4 mg/dL | Hb (9 h): 13.5 g/dL | Ht (9 h): 42.9% | Lym (9 h): 71.2% | MCH (9 h): 21.5 pg | MCHC (9 h): 31.5% | MCV (9 h): 68.1 fL | Mono (9 h): 2.6% | Neu (9 h): 25% | PT (9 h): 14.5 s | Plat (9 h): 114.3 x10_4/uL | RBC (9 h): 630.2 x10_4/ul | Ret (9 h): 8.4% | WBC (9 h): 69.8 x10_2/uL | KIDNEY_L (9 h): 0.9 g | KIDNEY_R (9 h): 0.9 g | KIDNEY_TOTAL (9 h): 1.9 g | LIVER (9 h): 8.8 g | A/G (9 h): 0.9 | ALP (9 h): 1165.4 IU/L | ALT (9 h): 36 IU/L | AST (9 h): 67.8 IU/L | BUN (9 h): 8.6 mg/dL | CRE (9 h): 0.2 mg/dL | Ca (9 h): 11.2 mg/dL | Cl (9 h): 105.4 meq/L | DBIL (9 h): 0.012 mg/dL | GLC (9 h): 192.6 mg/dL | IP (9 h): 10.4 mg/dL | K (9 h): 4.1 meq/L | LDH (9 h): 74.4 IU/L | Na (9 h): 140.6 meq/L | PL (9 h): 145.8 mg/dL | RALB (9 h): 2.5 g/dL | TBIL (9 h): 0.068 mg/dL | TC (9 h): 81.4 mg/dL | TG (9 h): 49.6 mg/dL | TP (9 h): 5.4 g/dL | gamma-GTP (9 h): 1 IU/L | TERMINAL_BW (24 h): 230.2 g | APTT (24 h): 16.1 s | Bas (24 h): 0% | Eos (24 h): 1% | Fbg (24 h): 264 mg/dL | Hb (24 h): 13 g/dL | Ht (24 h): 40.9% | Lym (24 h): 80.6% | MCH (24 h): 21.3 pg | MCHC (24 h): 31.9% | MCV (24 h): 66.6 fL | Mono (24 h): 2.8% | Neu (24 h): 15.2% | PT (24 h): 14.3 s | Plat (24 h): 120.8 x10_4/uL | RBC (24 h): 614.4 x10_4/ul | Ret (24 h): 7.6% | WBC (24 h): 87.8 x10_2/uL | KIDNEY_L (24 h): 1 g | KIDNEY_R (24 h): 1 g | KIDNEY_TOTAL (24 h): 2 g | LIVER (24 h): 11.2 g | A/G (24 h): 0.9 | ALP (24 h): 1650.8 IU/L | ALT (24 h): 48.2 IU/L | AST (24 h): 77 IU/L | BUN (24 h): 15.4 mg/dL | CRE (24 h): 0.2 mg/dL | Ca (24 h): 11.7 mg/dL | Cl (24 h): 103.6 meq/L | DBIL (24 h): 0.012 mg/dL | GLC (24 h): 191.6 mg/dL | IP (24 h): 8.8 mg/dL | K (24 h): 4.1 meq/L | LDH (24 h): 88.8 IU/L | Na (24 h): 141.2 meq/L | PL (24 h): 155.2 mg/dL | RALB (24 h): 2.6 g/dL | TBIL (24 h): 0.056 mg/dL | TC (24 h): 86.8 mg/dL | TG (24 h): 72.6 mg/dL | TP (24 h): 5.6 g/dL | gamma-GTP (24 h): 1.2 IU/L
